Reference: PubChem BioAssay AID330 (DTP/NCI, 2004)
Where “and” joins values, the source holds several entries; their conditions need not be identical. Equal entries are not always repeated. Toxic doses and inconclusive results are not listed.

Test system: P388 leukemia ip, CD2F1 mice, survival T/C
Experiment: NCI In Vivo Anticancer Drug Screen. Data for tumor model P388 Leukemia (intraperitoneal) in CD2F1 (CDF1) mice
Settings: endpoint: median survival time, higher = longer survival
In short: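 Mice carrying the transplanted tumor received test compound or vehicle. Survival was recorded in each group, and the value is the treated-group measurement divided by that of the vehicle-treated control group.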

[1] = dose: 100.0 mg/kg/injection, schedule: Q04DX002 (ip), vehicle: saline with Tween-80
[2] = dose: 200.0 mg/kg/injection, schedule: Q04DX002 (ip), vehicle: saline with Tween-80
[3] = dose: 400.0 mg/kg/injection, schedule: Q04DX002 (ip), vehicle: saline with Tween-80
[4] = dose: 60.0 mg/kg/injection, schedule: Q01DX005 (ip), vehicle: Klucel (hydroxypropylcellulose) (HPC)
[5] = dose: 120.0 mg/kg/injection, schedule: Q01DX005 (ip), vehicle: Klucel (hydroxypropylcellulose) (HPC)
[6] = dose: 50.0 mg/kg/injection, schedule: Q01DX009 (ip), vehicle: saline
[7] = dose: 100.0 mg/kg/injection, schedule: Q01DX009 (ip), vehicle: saline
[8] = dose: 25.0 mg/kg/injection, schedule: Q01DX009 (ip), vehicle: saline
[9] = dose: 200.0 mg/kg/injection, schedule: Q01DX009 (ip), vehicle: saline
[10] = dose: 400.0 mg/kg/injection, schedule: Q01DX009 (ip), vehicle: saline

CCCCOP(O)(=S)OCCCC
T/C [1]: 108 % of control
T/C (dose: 100.0 mg/kg/injection, schedule: Q04DX003 (ip), vehicle: saline with Tween-80): 105 % of control and 100 % of control
T/C [2]: 104 % of control
T/C (dose: 200.0 mg/kg/injection, schedule: Q04DX003 (ip), vehicle: saline with Tween-80): 106 % of control and 100 % of control
T/C [3]: 95 % of control
T/C (dose: 400.0 mg/kg/injection, schedule: Q04DX003 (ip), vehicle: saline with Tween-80): 101 % of control and 106 % of control

O=S(=O)(CS(=O)(=O)c1ccc(Br)cc1)c1ccc(Br)cc1
T/C [4]: 102 % of control
T/C [5]: 107 % of control
T/C (dose: 240.0 mg/kg/injection, schedule: Q01DX005 (ip), vehicle: Klucel (hydroxypropylcellulose) (HPC)): 102 % of control

CCOC(=O)NC(=N/C(=C/c1cccc(C)n1)c1ccccc1)c1ccccc1
T/C [4]: 93 % of control
T/C [5]: 91 % of control

COc1cc([N+](=O)[O-])ccc1NC(=O)C(F)(F)F
T/C (dose: 60.0 mg/kg/injection, schedule: Q01DX005 (ip), vehicle: saline with Tween-80): 100 % of control
T/C (dose: 120.0 mg/kg/injection, schedule: Q01DX005 (ip), vehicle: saline with Tween-80): 104 % of control
T/C (dose: 240.0 mg/kg/injection, schedule: Q01DX005 (ip), vehicle: saline with Tween-80): 101 % of control

C[CH2][Sn]([Br])([c]1ccccc1)[c]1ccccc1CN(C)C (stereo unspecified)
T/C [6]: 91 % of control
T/C [7]: 98 % of control

Nc1ccn(C2OC3COC2C3O)c(=O)n1 (stereo unspecified)
T/C [8]: 112 % of control
T/C (dose: 50.0 mg/kg/injection, schedule: Q01DX009 (ip), vehicle: saline + alcohol): 100 % of control
T/C [6]: 110 % of control
T/C (dose: 100.0 mg/kg/injection, schedule: Q01DX009 (ip), vehicle: saline + alcohol): 105 % of control
T/C [7]: 116 % of control
T/C (dose: 200.0 mg/kg/injection, schedule: Q01DX009 (ip), vehicle: saline + alcohol): 112 % of control
T/C [9]: 117 % of control
T/C (dose: 400.0 mg/kg/injection, schedule: Q01DX009 (ip), vehicle: saline + alcohol): 112 % of control
T/C [10]: 122 % of control
T/C (dose: 800.0 mg/kg/injection, schedule: Q01DX009 (ip), vehicle: saline + alcohol): 114 % of control

CC1(C)N=C(N)N=C(N)N1c1ccc(OCC(=O)N2CCOCC2)c(Cl)c1
T/C [8]: 109 % of control
T/C [6]: 116 % of control
T/C [7]: 107 % of control
T/C (dose: 100.0 mg/kg/injection, schedule: Q04DX003 (ip), vehicle: saline sonified): 113 % of control

Cc1ccnc(NN=O)n1
T/C (dose: 3.12 mg/kg/injection, schedule: Q01DX009 (ip), vehicle: water): 99 % of control
T/C (dose: 6.25 mg/kg/injection, schedule: Q01DX009 (ip), vehicle: water): 113 % of control
T/C (dose: 12.5 mg/kg/injection, schedule: Q01DX009 (ip), vehicle: water): 98 % of control
T/C (dose: 25.0 mg/kg/injection, schedule: Q01DX009 (ip), vehicle: water): 100 % of control and 105 % of control
T/C (dose: 50.0 mg/kg/injection, schedule: Q01DX009 (ip), vehicle: water): 113 % of control and 90 % of control
T/C (dose: 100.0 mg/kg/injection, schedule: Q01DX009 (ip), vehicle: water): 100 % of control
T/C (dose: 200.0 mg/kg/injection, schedule: Q01DX009 (ip), vehicle: water): 104 % of control

C[n+]1ccc(Nc2ccc(NC(=O)c3ccc(Nc4cc[n+](C)c5ccc(N)cc45)cc3N)cc2)cc1
T/C (dose: 0.18 mg/kg/injection, schedule: Q01DX009 (ip), vehicle: saline with Tween-80): 111 % of control
T/C (dose: 0.27 mg/kg/injection, schedule: Q01DX009 (ip), vehicle: saline with Tween-80): 124 % of control
T/C (dose: 1.0 mg/kg/injection, schedule: Q01DX009 (ip), vehicle: saline with Tween-80): 157 % of control
T/C (dose: 1.33 mg/kg/injection, schedule: Q01DX009 (ip), vehicle: saline with Tween-80): 154 % of control
T/C (dose: 1.5 mg/kg/injection, schedule: Q01DX009 (ip), vehicle: saline with Tween-80): 163 % of control
T/C (dose: 2.0 mg/kg/injection, schedule: Q01DX009 (ip), vehicle: saline with Tween-80): 200 % of control
T/C (dose: 3.0 mg/kg/injection, schedule: Q01DX009 (ip), vehicle: saline with Tween-80): 245 % of control
T/C (dose: 3.13 mg/kg/injection, schedule: Q01DX009 (ip), vehicle: saline with Tween-80): 271 % of control
T/C (dose: 4.5 mg/kg/injection, schedule: Q01DX009 (ip), vehicle: saline with Tween-80): 257 % of control
T/C (dose: 5.0 mg/kg/injection, schedule: Q04DX003 (ip), vehicle: saline with Tween-80): 154 % of control
T/C (dose: 6.25 mg/kg/injection, schedule: Q01DX009 (ip), vehicle: saline with Tween-80): 274 % of control
T/C (dose: 7.5 mg/kg/injection, schedule: Q04DX003 (ip), vehicle: saline with Tween-80): 163 % of control
T/C (dose: 12.5 mg/kg/injection, schedule: Q01DX009 (ip), vehicle: saline with Tween-80): 275 % of control
T/C (dose: 25.0 mg/kg/injection, schedule: Q01DX009 (ip), vehicle: saline with Tween-80): 100 % of control

COc1ccc(CCNCC(O)c2ccc(C)s2)cc1OC (stereo unspecified)
T/C (dose: 12.5 mg/kg/injection, schedule: Q01DX009 (ip), vehicle: saline): 100 % of control
T/C [8]: 86 % of control
T/C [6]: 101 % of control and 86 % of control
T/C [7]: 98 % of control

N#CC(CCCC(C#N)(c1ccccc1)c1ccccc1)(c1ccccc1)c1ccccc1
T/C (dose: 100.0 mg/kg/injection, schedule: Q01DX001 (ip), vehicle: Klucel (hydroxypropylcellulose) (HPC)): 100 % of control
T/C (dose: 200.0 mg/kg/injection, schedule: Q01DX001 (ip), vehicle: Klucel (hydroxypropylcellulose) (HPC)): 101 % of control
T/C (dose: 400.0 mg/kg/injection, schedule: Q01DX001 (ip), vehicle: Klucel (hydroxypropylcellulose) (HPC)): 105 % of control

O=c1c(N=Nc2ccccc2Cl)c(O)n(-c2ccc(Br)cc2)c(=S)n1-c1ccccc1
T/C [1]: 96 % of control
T/C [2]: 90 % of control
T/C [3]: 90 % of control

[Cl][Hg][c]1cccc(I)c1N=Nc1ccccc1
T/C (dose: 2.5 mg/kg/injection, schedule: Q01DX009 (ip), vehicle: saline + alcohol): 104 % of control
T/C (dose: 5.0 mg/kg/injection, schedule: Q01DX009 (ip), vehicle: saline + alcohol): 94 % of control

Oc1cc(-c2cc3cccc[n+]3o2)cc(O)c1O
T/C (dose: 12.5 mg/kg/injection, schedule: Q01DX009 (ip), vehicle: Klucel (hydroxypropylcellulose) (HPC)): 100 % of control
T/C (dose: 25.0 mg/kg/injection, schedule: Q01DX009 (ip), vehicle: Klucel (hydroxypropylcellulose) (HPC)): 99 % of control
T/C (dose: 50.0 mg/kg/injection, schedule: Q01DX009 (ip), vehicle: Klucel (hydroxypropylcellulose) (HPC)): 100 % of control

COC1(C)OC23C(=O)N(C)C(=O)N(C)C2(O1)N(C(C)=O)C(=O)N3C (stereo unspecified)
T/C (dose: 50.0 mg/kg/injection, schedule: Q01DX005 (ip), vehicle: saline with Tween-80): 100 % of control
T/C (dose: 100.0 mg/kg/injection, schedule: Q01DX005 (ip), vehicle: saline with Tween-80): 105 % of control
T/C (dose: 200.0 mg/kg/injection, schedule: Q01DX005 (ip), vehicle: saline with Tween-80): 98 % of control

CN1CCC(OC(=O)Oc2ccccc2)CC1
T/C [6]: 105 % of control
T/C [7]: 92 % of control
T/C [9]: 102 % of control

CCOC(=O)CCN(CC)CC
T/C (dose: 88.0 mg/kg/injection, schedule: Q04DX003 (ip), vehicle: saline): 100 % of control
T/C [7]: 116 % of control
T/C (dose: 132.0 mg/kg/injection, schedule: Q04DX003 (ip), vehicle: saline): 95 % of control
T/C [9]: 111 % of control
T/C (dose: 200.0 mg/kg/injection, schedule: Q04DX003 (ip), vehicle: saline): 109 % of control
T/C (dose: 300.0 mg/kg/injection, schedule: Q04DX003 (ip), vehicle: saline): 109 % of control
T/C [10]: 111 % of control
T/C (dose: 400.0 mg/kg/injection, schedule: Q04DX003 (ip), vehicle: saline): 100 % of control

CCCCOc1cc2c(cc1C(C)c1ccc(OC)cc1)OCO2 (stereo unspecified)
T/C (dose: 50.0 mg/kg/injection, schedule: Q01DX005 (ip), vehicle: distilled water + alcohol): 96 % of control
T/C (dose: 100.0 mg/kg/injection, schedule: Q01DX005 (ip), vehicle: distilled water + alcohol): 95 % of control
T/C (dose: 200.0 mg/kg/injection, schedule: Q01DX005 (ip), vehicle: distilled water + alcohol): 96 % of control

C/C(=C\c1ccc(Cl)cc1)C(=O)N1CCN(c2ccccc2)CC1
T/C (dose: 50.0 mg/kg/injection, schedule: Q01DX005 (ip), vehicle: Klucel (hydroxypropylcellulose) (HPC)): 105 % of control
T/C (dose: 100.0 mg/kg/injection, schedule: Q01DX005 (ip), vehicle: Klucel (hydroxypropylcellulose) (HPC)): 91 % of control
T/C (dose: 200.0 mg/kg/injection, schedule: Q01DX005 (ip), vehicle: Klucel (hydroxypropylcellulose) (HPC)): 96 % of control
